According to US9879049B2, “Glycopeptide antibiotic analogs effective against vancomycin-resistant bacterial strains” (The Scripps Research Institute, priority 2011, dated 2018):
Values after ≈ are worked out from the molar mass of the structure shown. Where two headings read alike, the source gives them in different places.

Tests used:
[1] = test system: N,N′-Ac2-Lys-D-Ala-D-Ala; assay: Titration binding assay (UV difference) with model D-Ala-D-Ala ligand; settings: for ligand, Ka, 6, X = NH: model ligand 6 (D-Ala-D-Ala), 0.02 M sodium citrate buffer pH 5.1; for Ka(6/7): ratio of Ka for ligand 6 (D-Ala-D-Ala) to ligand 7 (D-Ala-D-Lac)
Experimental: (§1) The binding constants for compounds 6 and 8 for association with the model ligands N,N′-Ac2-Lys-D-Ala-D-Ala (2) and N,N′-Ac2-Lys-D-Ala-D-Lac (4) were determined according to literature protocol.^30 UV difference measurements were carried out on a CARY 3E UV-Vis spectrometer. UV scans were run with a baseline correction that consisted of 0.02 M sodium citrate buffer (pH=5.1) and covered the range from 200 to 345 nm. A solution of 6 or 8 (7.7×10^−5M in 0.02 M sodium citrate buffer) was placed into a quartz UV cuvette (0.1 cm path length) and the UV spectrum recorded versus a reference cell containing 0.02 M sodium citrate buffer. UV spectra were recorded after each addition of a solution of N,N′-Ac2-Lys-D-Ala-D-Ala (2) or N,N′-Ac2-Lys-D-Ala-D-Lac (4) in 0.02 M sodium citrate buffer to each cell from 0.1 to 60.0 equivalents. The absorbance value at the λmax was recorded and the running change in absorbance, ΔAx equiv (Ainitial−Ax equiv), measured. The number of ligand equivalents was plotted versus ΔA to afford the ligand binding titration curve. The break point of this curve is the saturation point of the system and its xy coordinates were determined by establishing the intersection of the linear fits of the pre- and post-saturation curves. ΔAsaturation was calculated and employed to determine the concentration of free ligand in solution at each titration point. ΔA was plotted versus ΔA/free ligand concentration to give a Scatchard plot from which the binding constants were determined.
(§2) Titration Binding Assays with Model D-Ala-D-Ala and D-Ala-D-Lac Ligands 6 and 7.
(§3) The binding constants for all compounds for association with the model ligands N,N′-Ac2-Lys-D-Ala-D-Ala (6) and N,N′-Ac2-Lys-D-Ala-D-Lac (7) were determined according to literature protocol. UV difference experiments were carried out on a CARY 3E UV-Vis spectrometer. UV scans were run with a baseline correction that consisted of 0.02 M sodium citrate buffer (pH=5.1) and covered a range from 200 to 345 nm. A solution of the vancomycin aglycon derivative (7.7×10^−5 M in 0.02 M sodium citrate buffer) was placed into a quartz UV cuvette (0.1 cm path length) and the UV spectrum recorded versus a reference cell containing 0.02 M sodium citrate buffer. UV spectra were recorded after each addition of a solution of N,N′-Ac2-Lys-D-Ala-D-Ala (6) or N,N′-Ac2-Lys-D-Ala-D-Lac (7) in 0.02 M sodium citrate buffer to each cell from 0.1 to 60.0 equivalents. The absorbance value at the λmax was recorded and the running change in absorbance, ΔAx equiv (Ainitial−Ax equiv), measured. The number of ligand equivalents was plotted versus ΔA to afford the ligand binding titration curve. The break point of this curve is the saturation point of the system and its xy coordinates were determined by establishing the intersection of the linear fits of the pre and postsaturation curves. ΔAsaturation was calculated and employed to determine the concentration of free ligand in solution at each titration point. ΔA was plotted versus ΔA/free ligand concentration to give a Scatchard plot from which the binding constants were determined.

[2] = test system: N,N′-Ac2-Lys-D-Ala-D-Lac; assay: Titration binding assay (UV difference) with model D-Ala-D-Lac ligand; settings: for ligand, Ka, 7, X = O: model ligand 7 (D-Ala-D-Lac), 0.02 M sodium citrate buffer pH 5.1
Experimental: Titration Binding Assays with Model D-Ala-D-Ala and D-Ala-D-Lac Ligands 2 and 4.
as §1, §2, §3

[3] = test system: E. faecalis (BM4166, VanA VRE); assay: MIC by broth microdilution, VanA VRE; format: cell-based; settings: for MIC: Enterococcus faecalis, read-out: VanA MIC (minimum inhibitory conc.)
Experimental: E. faecalis (BM4166) was propagated and MIC's were determined in duplicate by the broth microdilution method according to standard microbiological practice. See: Clinical and Laboratory Standards Institute. Methods for Dilution Antimicrobial Susceptibility Tests for Bacteria That Grow Aerobically; Approved Standard, 7th ed.; CLSI document M07-A8; Clinical and Laboratory Standards Institute: Wayne, Pa., 2009. Cudic, M.; Condie, B. A.; Weiner, D. J.; Lysenko, E. S.; Xiang, Z. Q.; Insug, O.; Bulet, P.; Otvos, L., Jr.; Peptides 2002, 23, 271.
(§4) S. Aureus (ATCC 25923) and E. Faecalis (BM4166) were propagated and MICs were determined in duplicate by the broth microdilution method according to standard microbiological practice. (Clinical and Laboratory Standards Institute. Methods for Dilution Antimicrobial Susceptibility Tests for Bacteria That Grow Aerobically; Approved Standard, 7th ed.; CLSI document M07-A8; Clinical and Laboratory Standards Institute: Wayne, Pa., 2009.)

[4] = test system: S. Aureus (ATCC 25923); assay: MIC by broth microdilution, vancomycin-sensitive S. aureus; format: cell-based; settings: Staphylococcus aureus, ATCC25923
Experimental: as §4

[5] = amidine group; cited from earlier work
[6] = test system: sensitive bacterial strains; assay: Activity against sensitive bacterial strains; format: cell-based; settings: read-out: MIC against sensitive bacterial strains
[7] = test system: D-Ala-D-Lac, substrate model 4 (X═O); settings: cited from earlier work
[8] = test system: substrate model 3 (X═CH2); settings: substrate model 3 (X═CH2) versus model 2; cited from earlier work
[9] = test system: Vancomycin-resistant bacteria (VanA and VanB); settings: resistant bacteria with D-Ala-D-Lac precursor; cited from earlier work

For CN[C@H](CC(C)C)C(=O)N[C@H]1C(=O)N[C@@H](CC(N)=O)C(=O)N[C@H]2C(=NC#N)NC3C(=O)N[C@H](C(=O)N[C@H](CO)c4cc(O)cc(O)c4-c4cc3ccc4O)[C@H](O)c3ccc(c(Cl)c3)Oc3cc2cc(c3O)Oc2ccc(cc2Cl)[C@H]1O (single isomer, unassigned) [Compound 14], which “binding of D-Ala-D-Ala versus D-Ala-D-Lac” value ([1]; D-Ala-D-Ala bound more effectively than D-Ala-D-Lac) is on record?
Its value is at least 120 fold.

And the “affinity for D-Ala-D-Ala, fold less than parent amide 8 or amidine 10” value ([1]; relative to 8 or 10)?
Its value is 20 fold.

And the “binding of D-Ala-D-Lac” value ([2]; result in words)?
The value was “failed to bind”.

What about the MIC ([3]; E. faecalis BM4166, VanA VRE) of the same compound?
Its MIC is over 40 µg/mL.

And the MIC [4]?
The MIC was 10 µg/mL (≈ 8.67 µM).

What about the pKa [5] of the same compound?
The pKa was 1.

Which “ligand, Ka, 6, X = NH” value [1] does the source give for CN[C@H](CC(C)C)C(=O)N[C@H]1C(=O)N[C@@H](CC(N)=O)C(=O)N[C@H]2C(=O)N[C@H]3C(=O)N[C@H](C(=O)N[C@H](C(=O)O)c4cc(O)cc(O)c4-c4cc3ccc4O)[C@H](O)c3ccc(c(Cl)c3)Oc3cc2cc(c3O)Oc2ccc(cc2Cl)[C@H]1O [Compound 2, vancomycin aglycone, reference compound] here?
The value was 170000 M⁻¹.

And the “Ka(6/7)” value [1]?
Its value is 1400.

What about the “ligand, Ka, 7, X = O” value [2] of the same compound?
Its value is 120 M⁻¹.

What about the MIC ([3]; VRE) of the same compound?
Its MIC is 640 µg/mL (≈ 559 µM).

And the MIC [6]?
The MIC was 0.3 to 2 µg/mL (≈ 0.262 to 1.75 µM).

With CN[C@H](CC(C)C)C(=O)N[C@H]1C(=O)N[C@@H](CC(N)=O)C(=O)N[C@H]2C(=N)NC3C(=O)N[C@H](C(=O)N[C@H](C(=O)O)c4cc(O)cc(O)c4-c4cc3ccc4O)[C@H](O)c3ccc(c(Cl)c3)Oc3cc2cc(c3O)Oc2ccc(cc2Cl)[C@H]1O [Compound 4, [Ψ[C(═NH)NH]Tpg^4]Vancomycin Aglycon] as the compound, how does the “ligand, Ka, 6, X = NH” value [1] read?
The value was 73000 M⁻¹.

And the “Ka(6/7)” value [1]?
The value was 1.05.

What about the “ligand, Ka, 7, X = O” value [2] of the same compound?
The value was 69000 M⁻¹.

And the MIC ([3]; VRE)?
Its MIC is 0.31 µg/mL (≈ 0.271 µM).

And the pKa [5]?
Its pKa is 12.5.

Which results are given for CN[C@H](CC(C)C)C(=O)N[C@H]1C(=O)N[C@@H](CC(N)=O)C(=O)N[C@H]2C(=S)NC3C(=O)N[C@H](C(=O)N[C@H](C(=O)O)c4cc(O)cc(O)c4-c4cc3ccc4O)[C@H](O)c3ccc(c(Cl)c3)Oc3cc2cc(c3O)Oc2ccc(cc2Cl)[C@H]1O [Compound 5, [Ψ[C(═S)NH]Tpg^4]Vancomycin Aglycon]?
ligand, Ka, 6, X = NH [1]: 170 M⁻¹; binding to D-Ala-D-Ala ([1]; result in words, FIG. 3): completely disrupt binding; ligand, Ka, 7, X = O [2]: 11 M⁻¹; binding to D-Ala-D-Lac ([2]; result in words, FIG. 3): completely disrupt binding; MIC ([3]; VRE): > 640 µg/mL; antimicrobial activity ([3]; result in words, FIG. 3): lacked any antimicrobial activity

For CN=C1NC2C(=O)N[C@H](C(=O)N[C@H](CO)c3cc(O)cc(O)c3-c3cc2ccc3O)[C@H](O)c2ccc(c(Cl)c2)Oc2cc3cc(c2O)Oc2ccc(cc2Cl)[C@@H](O)[C@@H](NC(=O)[C@@H](CC(C)C)NC)C(=O)N[C@@H](CC(N)=O)C(=O)N[C@@H]13 [Compound 11], which “relative affinity for ligands 6 and 7” value ([1]; D-Ala-D-Ala versus D-Ala-D-Lac, result in words) is on record?
The value was “near equal affinities”.

What about the “times less effective than parent amidine 10 at binding D-Ala-D-Ala ligand 6” value ([1]; relative to 10) of the same compound?
Its value is 30 to 50 times.

What about the “times less effective than parent amidine 10 at binding D-Ala-D-Lac ligand 7” value ([2]; relative to 10) of the same compound?
Its value is 30 to 50 times.

What about the MIC ([3]; E. faecalis BM4166, VanA VRE) of the same compound?
Its MIC is 20 µg/mL (≈ 17.5 µM).

And the “fold less potent than 10 against VanA VRE” value ([3]; relative to parent amidine 10)?
Its value is 60 fold.

For CN[C@H](CC(C)C)C(=O)N[C@H]1C(=O)N[C@@H](CC(N)=O)C(=O)N[C@H]2C(=O)N[C@H]3C(=O)N[C@H](C(=O)N[C@H](C(=O)O)c4cc(O)cc(O)c4-c4cc3ccc4O)[C@H](O)c3ccc(c(Cl)c3)Oc3cc2cc(c3O[C@@H]2O[C@H](CO)[C@@H](O)[C@H](O)[C@H]2O[C@H]2C[C@](C)(N)[C@H](O)[C@H](C)O2)Oc2ccc(cc2Cl)[C@H]1O [vancomycin], which “loss in Gibbs free energy of binding ΔG°” value ([7]; 25° C., substrate model 4 (X═O) versus model 2) is on record?
The value was 3.1 kcal/mol.

And the “reduction of binding affinity for the altered ligand D-Ala-D-Lac” value ([7]; versus D-Ala-D-Ala)?
Its value is 1000 fold.

What about the “free energy loss of binding” value [8] of the same compound?
Its value is “about 1.5 kcal/mole”.

And the “loss in antimicrobial activity” value [9]?
Its value is 1000 fold.

What does the source list for “[Ψ-[CH2NH]Tpg^4]vancomycin aglycon [Compound 3, reference compound]”?
ligand, Ka, 6, X = NH [1]: 4800 M⁻¹; Ka(6/7) [1]: 0.9; ligand, Ka, 7, X = O [2]: 5200 M⁻¹; VanA MIC (minimum inhibitory conc.) ([3]; E. faecalis BM4166, VanA VRE): 31 µg/mL
